What was measured:
Assay in all cases: relative viability (nuclei count vs DMSO), 5 days (fraction); higher = more cells survive
VX-11e + Luminespib = compound: CC1=CN=C(N=C1C2=CNC(=C2)C(=O)N[C@H](CO)C3=CC(=CC=C3)Cl)NC4=C(C=C(C=C4)F)Cl [VX-11e] + CCNC(=O)c1noc(-c2cc(C(C)C)c(O)cc2O)c1-c1ccc(CN2CCOCC2)cc1 [Luminespib] (partner 0.01 µM)
Outline: (§1)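 Relative viability divides the nuclei count in treated wells by that in vehicle wells. Lung cancer cell lines were seeded in 1536-well plates, dosed by pin tool the next day, and fixed and stained after 5 days in one step with final 0.05% Triton X-100, 1% formaldehyde and 1 ug/ml Hoechst. Dosing was a single drug or a fixed anchor-drug dose plus five library-drug doses (not always all listed) in √10 steps, and values are medians of duplicate plates imaged at 4×.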

VX-11e + Palbociclib = compound: CC1=CN=C(N=C1C2=CNC(=C2)C(=O)N[C@H](CO)C3=CC(=CC=C3)Cl)NC4=C(C=C(C=C4)F)Cl [VX-11e] + CC(=O)c1c(C)c2cnc(Nc3ccc(N4CCNCC4)cn3)nc2n(C2CCCC2)c1=O [Palbociclib] (partner 0.5 µM)
Outline: as §1

VX-11e + Dasatinib = compound: CC1=CN=C(N=C1C2=CNC(=C2)C(=O)N[C@H](CO)C3=CC(=CC=C3)Cl)NC4=C(C=C(C=C4)F)Cl [VX-11e] + Cc1nc(Nc2ncc(C(=O)Nc3c(C)cccc3Cl)s2)cc(N2CCN(CCO)CC2)n1 [Dasatinib] (partner 0.075 µM)
Outline: as §1

VX-11e + Bortezomib = compound: CC1=CN=C(N=C1C2=CNC(=C2)C(=O)N[C@H](CO)C3=CC(=CC=C3)Cl)NC4=C(C=C(C=C4)F)Cl [VX-11e] + CC(C)C[C@H](NC(=O)[C@H](Cc1ccccc1)NC(=O)c1cnccn1)B(O)O [Bortezomib] (partner 0.002 µM)
Outline: as §1

Cell Line: NCI-H2228
- relative viability (VX-11e + Luminespib; first compound 0.04 µM): 0.145
- relative viability (VX-11e + Luminespib; first compound 0.1265 µM): 0.138
- relative viability (VX-11e + Luminespib; first compound 1.265 µM): 0.148
- relative viability (VX-11e + Luminespib; first compound 4 µM): 0.12
- relative viability (VX-11e + Palbociclib; first compound 0.04 µM): 0.832
- relative viability (VX-11e + Palbociclib; first compound 0.1265 µM): 0.731
- relative viability (VX-11e + Palbociclib; first compound 0.4 µM): 0.165
- relative viability (VX-11e + Palbociclib; first compound 1.265 µM): 0.528
- relative viability (VX-11e + Palbociclib; first compound 4 µM): 0.199
- relative viability (VX-11e + Dasatinib; first compound 0.04 µM): 0.591
- relative viability (VX-11e + Dasatinib; first compound 0.1265 µM): 0.578
- relative viability (VX-11e + Dasatinib; first compound 1.265 µM): 0.351
- relative viability (VX-11e + Dasatinib; first compound 4 µM): 0.188
- relative viability (VX-11e + Bortezomib; first compound 0.04 µM): 1.18
- relative viability (VX-11e + Bortezomib; first compound 0.1265 µM): 1.18
- relative viability (VX-11e + Bortezomib; first compound 0.4 µM): 0.221
- relative viability (VX-11e + Bortezomib; first compound 1.265 µM): 0.681
- relative viability (VX-11e + Bortezomib; first compound 4 µM): 0.284

Cell Line: SW 1573
- relative viability (VX-11e + Luminespib; first compound 0.04 µM): 0.233
- relative viability (VX-11e + Luminespib; first compound 0.1265 µM): 0.206
- relative viability (VX-11e + Luminespib; first compound 0.4 µM): 0.23
- relative viability (VX-11e + Luminespib; first compound 1.265 µM): 0.384
- relative viability (VX-11e + Luminespib; first compound 4 µM): 0.133
- relative viability (VX-11e + Palbociclib; first compound 0.1265 µM): 0.342
- relative viability (VX-11e + Palbociclib; first compound 0.4 µM): 0.351
- relative viability (VX-11e + Palbociclib; first compound 1.265 µM): 0.259
- relative viability (VX-11e + Palbociclib; first compound 4 µM): 0.15
- relative viability (VX-11e + Dasatinib; first compound 0.04 µM): 0.656
- relative viability (VX-11e + Dasatinib; first compound 0.1265 µM): 0.641
- relative viability (VX-11e + Dasatinib; first compound 0.4 µM): 0.718
- relative viability (VX-11e + Dasatinib; first compound 1.265 µM): 0.424
- relative viability (VX-11e + Dasatinib; first compound 4 µM): 0.28
- relative viability (VX-11e + Bortezomib; first compound 0.04 µM): 0.812
- relative viability (VX-11e + Bortezomib; first compound 0.1265 µM): 0.854
- relative viability (VX-11e + Bortezomib; first compound 0.4 µM): 1.02
- relative viability (VX-11e + Bortezomib; first compound 1.265 µM): 0.826
- relative viability (VX-11e + Bortezomib; first compound 4 µM): 0.64

Cell Line: NCI-H2342
- relative viability (VX-11e + Luminespib; first compound 0.04 µM): 0.79
- relative viability (VX-11e + Luminespib; first compound 0.1265 µM): 0.76
- relative viability (VX-11e + Luminespib; first compound 0.4 µM): 0.558
- relative viability (VX-11e + Luminespib; first compound 1.265 µM): 0.617
- relative viability (VX-11e + Luminespib; first compound 4 µM): 0.747
- relative viability (VX-11e + Palbociclib; first compound 0.1265 µM): 0.542
- relative viability (VX-11e + Palbociclib; first compound 0.4 µM): 0.521
- relative viability (VX-11e + Palbociclib; first compound 1.265 µM): 0.568
- relative viability (VX-11e + Palbociclib; first compound 4 µM): 0.515
- relative viability (VX-11e + Dasatinib; first compound 0.04 µM): 0.31
- relative viability (VX-11e + Dasatinib; first compound 0.1265 µM): 0.282
- relative viability (VX-11e + Dasatinib; first compound 0.4 µM): 0.285
- relative viability (VX-11e + Dasatinib; first compound 1.265 µM): 0.307
- relative viability (VX-11e + Dasatinib; first compound 4 µM): 0.348

Cell Line: A-427
- relative viability (VX-11e + Luminespib; first compound 0.04 µM): 1.05
- relative viability (VX-11e + Luminespib; first compound 0.1265 µM): 0.865
- relative viability (VX-11e + Luminespib; first compound 0.4 µM): 0.642
- relative viability (VX-11e + Luminespib; first compound 1.265 µM): 0.687
- relative viability (VX-11e + Luminespib; first compound 4 µM): 0.483
- relative viability (VX-11e + Palbociclib; first compound 0.04 µM): 0.553
- relative viability (VX-11e + Palbociclib; first compound 0.1265 µM): 0.442
- relative viability (VX-11e + Palbociclib; first compound 0.4 µM): 0.516
- relative viability (VX-11e + Palbociclib; first compound 1.265 µM): 0.496
- relative viability (VX-11e + Palbociclib; first compound 4 µM): 0.336
- relative viability (VX-11e + Dasatinib; first compound 0.04 µM): 0.751
- relative viability (VX-11e + Dasatinib; first compound 0.1265 µM): 0.574
- relative viability (VX-11e + Dasatinib; first compound 0.4 µM): 0.488
- relative viability (VX-11e + Dasatinib; first compound 1.265 µM): 0.232
- relative viability (VX-11e + Dasatinib; first compound 4 µM): 0.114
- relative viability (VX-11e + Bortezomib; first compound 0.04 µM): 1.11
- relative viability (VX-11e + Bortezomib; first compound 0.1265 µM): 0.955
- relative viability (VX-11e + Bortezomib; first compound 0.4 µM): 1.06
- relative viability (VX-11e + Bortezomib; first compound 1.265 µM): 1.04
- relative viability (VX-11e + Bortezomib; first compound 4 µM): 0.479

Cell Line: HARA
- relative viability (VX-11e + Luminespib; first compound 0.04 µM): 0.677
- relative viability (VX-11e + Luminespib; first compound 0.1265 µM): 0.609
- relative viability (VX-11e + Luminespib; first compound 0.4 µM): 0.637
- relative viability (VX-11e + Luminespib; first compound 1.265 µM): 0.695
- relative viability (VX-11e + Luminespib; first compound 4 µM): 0.297
- relative viability (VX-11e + Palbociclib; first compound 0.04 µM): 0.337
- relative viability (VX-11e + Palbociclib; first compound 0.1265 µM): 0.237
- relative viability (VX-11e + Palbociclib; first compound 0.4 µM): 0.196
- relative viability (VX-11e + Palbociclib; first compound 1.265 µM): 0.158
- relative viability (VX-11e + Palbociclib; first compound 4 µM): 0.178
- relative viability (VX-11e + Dasatinib; first compound 0.04 µM): 0.306
- relative viability (VX-11e + Dasatinib; first compound 0.1265 µM): 0.2
- relative viability (VX-11e + Dasatinib; first compound 0.4 µM): 0.273
- relative viability (VX-11e + Dasatinib; first compound 1.265 µM): 0.248
- relative viability (VX-11e + Dasatinib; first compound 4 µM): 0.157
- relative viability (VX-11e + Bortezomib; first compound 0.04 µM): 0.992
- relative viability (VX-11e + Bortezomib; first compound 0.1265 µM): 1.08
- relative viability (VX-11e + Bortezomib; first compound 0.4 µM): 1.13
- relative viability (VX-11e + Bortezomib; first compound 1.265 µM): 0.507
- relative viability (VX-11e + Bortezomib; first compound 4 µM): 0.803

Cell Line: HCC-78
- relative viability (VX-11e + Palbociclib; first compound 0.04 µM): 0.481
- relative viability (VX-11e + Palbociclib; first compound 0.1265 µM): 0.359
- relative viability (VX-11e + Palbociclib; first compound 0.4 µM): 0.466
- relative viability (VX-11e + Palbociclib; first compound 1.265 µM): 0.501
- relative viability (VX-11e + Palbociclib; first compound 4 µM): 0.431
- relative viability (VX-11e + Dasatinib; first compound 0.1265 µM): 0.412
- relative viability (VX-11e + Dasatinib; first compound 0.4 µM): 0.411
- relative viability (VX-11e + Dasatinib; first compound 1.265 µM): 0.382
- relative viability (VX-11e + Dasatinib; first compound 4 µM): 0.44
- relative viability (VX-11e + Bortezomib; first compound 0.04 µM): 0.565
- relative viability (VX-11e + Bortezomib; first compound 0.1265 µM): 0.491
- relative viability (VX-11e + Bortezomib; first compound 0.4 µM): 0.505
- relative viability (VX-11e + Bortezomib; first compound 1.265 µM): 0.227
- relative viability (VX-11e + Bortezomib; first compound 4 µM): 0.441

Cell Line: NCI-H1755
- relative viability (VX-11e + Luminespib; first compound 0.04 µM): 0.3
- relative viability (VX-11e + Luminespib; first compound 0.1265 µM): 0.42
- relative viability (VX-11e + Luminespib; first compound 0.4 µM): 0.479
- relative viability (VX-11e + Luminespib; first compound 1.265 µM): 0.466
- relative viability (VX-11e + Luminespib; first compound 4 µM): 0.324
- relative viability (VX-11e + Palbociclib; first compound 0.04 µM): 0.429
- relative viability (VX-11e + Palbociclib; first compound 0.1265 µM): 0.404
- relative viability (VX-11e + Palbociclib; first compound 0.4 µM): 0.45
- relative viability (VX-11e + Palbociclib; first compound 1.265 µM): 0.43
- relative viability (VX-11e + Palbociclib; first compound 4 µM): 0.417
- relative viability (VX-11e + Dasatinib; first compound 0.04 µM): 0.444
- relative viability (VX-11e + Dasatinib; first compound 0.1265 µM): 0.392
- relative viability (VX-11e + Dasatinib; first compound 0.4 µM): 0.413
- relative viability (VX-11e + Dasatinib; first compound 1.265 µM): 0.398
- relative viability (VX-11e + Dasatinib; first compound 4 µM): 0.298
- relative viability (VX-11e + Bortezomib; first compound 0.04 µM): 0.965
- relative viability (VX-11e + Bortezomib; first compound 0.1265 µM): 0.931
- relative viability (VX-11e + Bortezomib; first compound 0.4 µM): 0.884
- relative viability (VX-11e + Bortezomib; first compound 1.265 µM): 0.923
- relative viability (VX-11e + Bortezomib; first compound 4 µM): 0.608

Cell Line: NCI-H2405
- relative viability (VX-11e + Luminespib; first compound 0.04 µM): 0.798
- relative viability (VX-11e + Luminespib; first compound 0.1265 µM): 0.719
- relative viability (VX-11e + Luminespib; first compound 0.4 µM): 0.395
- relative viability (VX-11e + Luminespib; first compound 1.265 µM): 0.717
- relative viability (VX-11e + Luminespib; first compound 4 µM): 0.296
- relative viability (VX-11e + Palbociclib; first compound 0.04 µM): 0.579
- relative viability (VX-11e + Palbociclib; first compound 0.1265 µM): 0.506
- relative viability (VX-11e + Palbociclib; first compound 0.4 µM): 0.385
- relative viability (VX-11e + Palbociclib; first compound 1.265 µM): 0.513
- relative viability (VX-11e + Palbociclib; first compound 4 µM): 0.328
- relative viability (VX-11e + Dasatinib; first compound 0.04 µM): 0.204
- relative viability (VX-11e + Dasatinib; first compound 0.1265 µM): 0.186
- relative viability (VX-11e + Dasatinib; first compound 0.4 µM): 0.15
- relative viability (VX-11e + Dasatinib; first compound 1.265 µM): 0.151
- relative viability (VX-11e + Dasatinib; first compound 4 µM): 0.128
- relative viability (VX-11e + Bortezomib; first compound 0.04 µM): 1.04
- relative viability (VX-11e + Bortezomib; first compound 0.1265 µM): 0.953
- relative viability (VX-11e + Bortezomib; first compound 0.4 µM): 0.988
- relative viability (VX-11e + Bortezomib; first compound 1.265 µM): 0.952
- relative viability (VX-11e + Bortezomib; first compound 4 µM): 0.601

— the supplement of paper PMC10307832
